Measured values taken from US10526337B2, “Heteroaryl derivative or pharmaceutically acceptable salt thereof, preparation method therefor, and pharmaceutical composition for preventing or treating diseases associated with PI3 kinases, containing same as active ingredient” (KOREA RESEARCH INSTITUTE OF CHEMICAL TECHNOLOGY, priority 2015, dated 2020).

What was measured:
Conditions in all cases: ATP=10 uM, sample concentration=100 nM
[1] = biological target: T1, PI3 Kinase (p110α/p85α) (h) (Homo sapiens, UniProt P42336); assay: Inhibition of phosphatidylinositol 3-kinase alpha (PI3K α), pAkt Western blotting in EGF-stimulated MDA-MB-453 cells; format: cell-based
T1 construct: endogenous in cells; host or cells: MDA-MB-453
Protocol: The inhibition of phosphatidylinositol 3 kinase alpha (PI3K α) by those compounds prepared in Examples 1˜98 was investigated by the following experiment. The inhibition activity of each compound was measured in the following conditions: ATP=10 uM, and sample concentration=100 nM.
Human breast cancer cells (MDA-MB-453) cultured in DMEM (Dulbecco's Modified Eagle Medium, Hyclon, SH30243.01) supplemented with 10% fetal bovine serum (Hyclon, USA) were distributed in a 12-well plate at the density of 1,000,000 cells/well. The cells were stabilized in a 37° C. CO2 for 24 hours and then treated with each compound for 1 and half hours. The cells were treated with 10 ng/mL of EGF (Epidermal Growth Factor, 10 μg/mL; R&D, 2150-C5) to increase the intracellular activity of PI3K alpha. 5 minutes later, the medium was discarded and the cells were washed with cold PBS (phosphate buffered saline, Gibco, 14190-250). PBS was then eliminated completely by using a pipette. Western blotting was performed as described in step 2 to evaluate the intracellular PI3K alpha activity.
(§1) The stimulated cells were transferred in a 1.5 mL tube, followed by centrifugation at 3000 rpm for 1 minute. 100 μL of RIPA buffer (radioimmunoprecipitation assay buffer, 50 mM Tris-HCl, 5 mM EDTA, 150 mM NaCl, 1% NP-40, 1 mM PMSF, pH 8.0; ELPIS, Korea) was added thereto, which was stored in a 4° C. refrigerator for 12 hours. Centrifugation was performed at 4° C. at 14,000 rpm for 20 minutes. The supernatant was transferred into a new 1.5 mL tube. Protein was quantified by BCA (bicinchoninic acid) method and samples were prepared. The composition of the sample was as follows: sample buffer (ELPIS, EBA-1052) 5×, protein 10 μg, and 1× sample buffer to make the total volume 20 μL. The sample was heated at 100° C. for 5 minutes. The evaporated water vapor was condensed in a refrigerator. The liquid stained on the wall was fallen down by centrifugation for a few seconds. The sample proceeded to 10% SDS (Sodium Dodecyl Sulfate) acrylamide gel for separation. The separated protein was transferred onto PVDF (poly-vinyl difluoride) membrane, followed by reaction with pAkt (phospho protein kinase B) antibody (Ser473 or Thr308; Cell signaling, 9271s or 13038s) for 12 hours at 4° C. The membrane was washed with TBST (Tris-Buffered Saline with Tween 20, 10 mM Tris-HCl, pH 7.5, 150 mM NaCl, 0.1% Tween-20) three times for 5 minutes each, to which the secondary antibody (rabbit antibody, Santacruz, sc-2004) was added, followed by reaction at room temperature for 2 hours. The membrane was washed with TBST three times for 10 minutes each, to which ECL (enhanced chemiluminescence, Thermo, NCI34095KR) was sprayed. Bands were investigated by using LAS-3000.

[2] = biological target: T2, PI3 Kinase (p110δ/p85α) (h) (Homo sapiens, UniProt O00329); assay: Inhibition of phosphatidylinositol 3-kinase delta (PI3K δ), pAkt Western blotting in IgM-stimulated Raji cells; format: cell-based
T2 construct: endogenous in cells; host or cells: Raji
How it was run: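 Raji cells were treated with compound for 1.5 h, then stimulated with 0.25 μg/mL IgM for 30 min to activate PI3Kδ. Lysates were Western blotted for pAkt (Ser473 or Thr308) with ECL detection. Conditions stated: ATP=10 uM, sample concentration=100 nM.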

[3] = biological target: T3, PI3 Kinase (p110β/p86α) (h) (Homo sapiens, UniProt P42338); assay: Inhibition of phosphatidylinositol 3-kinase beta (PI3K β), pAkt Western blotting in LPA-stimulated PC3 cells; format: cell-based
T3 construct: endogenous in cells; host or cells: PC3
Protocol: as §1
The inhibition of phosphatidylinositol 3 kinase beta (PI3K β) by those compounds prepared in Examples 1˜98 was investigated by the following experiment. The inhibition activity of each compound was measured in the following conditions: ATP=10 uM, and sample concentration=100 nM.
Human prostate cancer cells (PC3 cells) cultured in DMEM (Dulbecco's Modified Eagle Medium, Hyclon, SH30243.01) supplemented with 10% fetal bovine serum (Hyclon, USA) were distributed in a 12-well plate at the density of 1,000,000 cells/well. The cells were stabilized in a 37° C. CO2 for 24 hours and then treated with each compound for 1 and half hours. The cells were treated with 10 ng/mL of LPA (lysophosphatidic acid, 10 μg/mL; R&D, 2150-05) to increase the intracellular activity of PI3K beta. 5 minutes later, the medium was discarded and the cells were washed with cold PBS (phosphate buffered saline, Gibco, 14190-250). PBS was then eliminated completely by using a pipette. Western blotting was performed according to the same manner as described in step 2 of Experimental Example 1 to evaluate the intracellular PI3K beta activity.

PI3 Kinase (p120γ) (h) = biological target: T4, PI3 Kinase (p120γ) (h) (Homo sapiens, UniProt P48736); assay: Inhibition of phosphatidylinositol 3-kinase gamma (PI3K γ), pAkt Western blotting in C5a-stimulated RAW264.7 macrophages; format: cell-based, mouse
T4 construct: endogenous in cells; host or cells: RAW264.7
How it was run: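 Enzyme: PI3Kγ activity measured at ATP=10 uM with compound at 100 nM. Cellular: RAW264.7 macrophages treated with compound 1.5 h, then stimulated with 10 ng/mL C5a for 5 min; lysates (10 μg protein) probed by Western blot for pAkt (Ser473 or Thr308), ECL detection.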

T4 sequence (P48736 whole entry): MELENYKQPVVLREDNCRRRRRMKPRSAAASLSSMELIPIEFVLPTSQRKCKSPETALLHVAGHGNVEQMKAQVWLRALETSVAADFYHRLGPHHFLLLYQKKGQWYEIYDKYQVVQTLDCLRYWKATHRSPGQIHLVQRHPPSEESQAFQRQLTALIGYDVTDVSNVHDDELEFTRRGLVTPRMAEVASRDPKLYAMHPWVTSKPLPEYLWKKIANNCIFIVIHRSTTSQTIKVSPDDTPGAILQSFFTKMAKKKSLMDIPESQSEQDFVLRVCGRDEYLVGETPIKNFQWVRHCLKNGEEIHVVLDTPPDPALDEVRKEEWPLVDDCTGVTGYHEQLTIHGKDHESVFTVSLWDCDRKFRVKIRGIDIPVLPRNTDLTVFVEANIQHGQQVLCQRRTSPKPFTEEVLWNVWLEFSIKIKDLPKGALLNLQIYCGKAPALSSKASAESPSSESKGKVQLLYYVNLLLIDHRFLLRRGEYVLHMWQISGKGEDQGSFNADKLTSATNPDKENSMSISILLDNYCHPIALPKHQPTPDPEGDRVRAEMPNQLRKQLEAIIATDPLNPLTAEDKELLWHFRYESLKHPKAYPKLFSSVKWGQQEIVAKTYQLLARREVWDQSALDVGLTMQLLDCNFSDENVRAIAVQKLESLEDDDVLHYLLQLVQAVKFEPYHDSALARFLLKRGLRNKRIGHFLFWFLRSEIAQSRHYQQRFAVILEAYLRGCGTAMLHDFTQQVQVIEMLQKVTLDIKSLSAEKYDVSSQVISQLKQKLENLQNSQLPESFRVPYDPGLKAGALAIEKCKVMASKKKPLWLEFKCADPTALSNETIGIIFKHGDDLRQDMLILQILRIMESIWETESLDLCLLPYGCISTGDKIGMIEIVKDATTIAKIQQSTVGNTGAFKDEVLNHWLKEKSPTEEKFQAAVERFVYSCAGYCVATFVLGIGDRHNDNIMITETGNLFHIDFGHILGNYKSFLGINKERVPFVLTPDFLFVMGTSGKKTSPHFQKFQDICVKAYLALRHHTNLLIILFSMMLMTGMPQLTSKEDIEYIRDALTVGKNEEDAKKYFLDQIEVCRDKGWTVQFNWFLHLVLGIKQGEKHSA
T1 sequence (P42336 whole entry): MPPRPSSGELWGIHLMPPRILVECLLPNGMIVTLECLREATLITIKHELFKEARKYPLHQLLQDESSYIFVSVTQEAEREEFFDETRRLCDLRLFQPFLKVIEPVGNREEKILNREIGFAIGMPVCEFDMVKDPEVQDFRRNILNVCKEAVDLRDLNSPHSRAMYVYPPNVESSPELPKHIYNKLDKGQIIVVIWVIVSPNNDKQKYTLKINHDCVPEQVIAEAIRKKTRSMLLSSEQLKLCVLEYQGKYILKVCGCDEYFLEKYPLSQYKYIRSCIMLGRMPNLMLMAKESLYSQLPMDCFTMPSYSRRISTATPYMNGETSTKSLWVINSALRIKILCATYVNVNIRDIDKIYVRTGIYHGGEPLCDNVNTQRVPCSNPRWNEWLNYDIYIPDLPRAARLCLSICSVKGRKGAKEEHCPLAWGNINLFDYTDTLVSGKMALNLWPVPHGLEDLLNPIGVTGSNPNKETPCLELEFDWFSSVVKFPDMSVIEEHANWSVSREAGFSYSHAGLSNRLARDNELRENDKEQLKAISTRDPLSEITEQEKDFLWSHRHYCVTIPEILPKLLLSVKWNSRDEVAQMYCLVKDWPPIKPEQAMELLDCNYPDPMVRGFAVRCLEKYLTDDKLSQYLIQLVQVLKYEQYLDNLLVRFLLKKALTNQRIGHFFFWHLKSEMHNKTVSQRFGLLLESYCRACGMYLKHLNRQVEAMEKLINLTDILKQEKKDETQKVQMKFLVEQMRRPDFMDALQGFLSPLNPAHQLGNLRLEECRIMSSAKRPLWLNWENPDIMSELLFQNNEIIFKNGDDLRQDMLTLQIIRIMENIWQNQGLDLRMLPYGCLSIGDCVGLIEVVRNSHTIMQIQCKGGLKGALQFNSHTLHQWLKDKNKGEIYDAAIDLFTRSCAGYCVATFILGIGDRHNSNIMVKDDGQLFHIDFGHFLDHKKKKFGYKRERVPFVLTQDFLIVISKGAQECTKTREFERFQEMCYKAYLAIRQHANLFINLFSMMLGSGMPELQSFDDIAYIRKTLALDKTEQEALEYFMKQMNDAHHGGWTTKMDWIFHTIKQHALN
T1 sequence (P27986 2-724 partner limits assumed): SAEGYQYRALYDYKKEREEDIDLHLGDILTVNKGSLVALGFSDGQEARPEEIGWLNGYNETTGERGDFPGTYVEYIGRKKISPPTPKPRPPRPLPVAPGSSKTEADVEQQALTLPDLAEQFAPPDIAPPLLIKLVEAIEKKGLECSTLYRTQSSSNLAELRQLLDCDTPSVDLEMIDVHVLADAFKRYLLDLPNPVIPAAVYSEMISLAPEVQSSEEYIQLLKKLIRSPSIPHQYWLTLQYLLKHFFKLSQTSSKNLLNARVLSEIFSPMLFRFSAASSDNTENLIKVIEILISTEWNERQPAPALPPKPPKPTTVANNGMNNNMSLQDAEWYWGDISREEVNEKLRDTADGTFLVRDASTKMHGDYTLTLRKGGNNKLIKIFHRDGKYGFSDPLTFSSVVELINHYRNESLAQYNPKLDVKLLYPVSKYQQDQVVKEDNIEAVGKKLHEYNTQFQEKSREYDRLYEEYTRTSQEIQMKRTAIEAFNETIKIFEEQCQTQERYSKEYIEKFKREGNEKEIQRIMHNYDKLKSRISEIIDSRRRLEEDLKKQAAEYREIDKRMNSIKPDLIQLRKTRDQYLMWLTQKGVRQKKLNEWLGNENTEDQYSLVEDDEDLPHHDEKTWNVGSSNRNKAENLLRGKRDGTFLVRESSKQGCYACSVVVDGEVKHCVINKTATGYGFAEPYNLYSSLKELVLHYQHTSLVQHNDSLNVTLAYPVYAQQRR
T2 sequence (O00329 whole entry): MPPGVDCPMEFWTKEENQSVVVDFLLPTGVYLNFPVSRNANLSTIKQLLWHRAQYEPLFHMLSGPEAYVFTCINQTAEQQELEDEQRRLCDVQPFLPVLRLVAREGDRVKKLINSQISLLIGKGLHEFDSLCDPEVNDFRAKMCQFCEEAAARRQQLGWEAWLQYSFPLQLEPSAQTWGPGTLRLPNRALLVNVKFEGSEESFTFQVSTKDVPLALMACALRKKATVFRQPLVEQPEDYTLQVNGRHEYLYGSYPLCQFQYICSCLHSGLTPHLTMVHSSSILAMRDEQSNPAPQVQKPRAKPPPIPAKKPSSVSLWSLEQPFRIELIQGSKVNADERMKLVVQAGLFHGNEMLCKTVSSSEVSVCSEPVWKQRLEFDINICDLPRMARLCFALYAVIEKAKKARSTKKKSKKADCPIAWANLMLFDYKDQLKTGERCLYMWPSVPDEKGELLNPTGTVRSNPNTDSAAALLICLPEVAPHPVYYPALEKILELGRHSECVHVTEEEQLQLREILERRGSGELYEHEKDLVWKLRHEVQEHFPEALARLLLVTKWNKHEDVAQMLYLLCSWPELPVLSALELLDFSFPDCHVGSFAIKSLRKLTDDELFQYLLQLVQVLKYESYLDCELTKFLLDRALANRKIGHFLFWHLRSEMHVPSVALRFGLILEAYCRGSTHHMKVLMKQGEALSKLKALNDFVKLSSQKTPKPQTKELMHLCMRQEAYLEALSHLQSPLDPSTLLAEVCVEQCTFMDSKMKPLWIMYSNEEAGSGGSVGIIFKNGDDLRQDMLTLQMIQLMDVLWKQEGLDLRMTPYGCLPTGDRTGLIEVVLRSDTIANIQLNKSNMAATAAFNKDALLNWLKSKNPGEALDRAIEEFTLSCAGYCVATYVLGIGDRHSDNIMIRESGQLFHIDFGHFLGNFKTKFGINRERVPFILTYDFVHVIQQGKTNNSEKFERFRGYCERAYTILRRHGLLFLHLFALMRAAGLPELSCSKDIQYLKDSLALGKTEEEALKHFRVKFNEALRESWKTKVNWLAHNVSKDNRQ
T2 sequence (P27986 whole entry partner): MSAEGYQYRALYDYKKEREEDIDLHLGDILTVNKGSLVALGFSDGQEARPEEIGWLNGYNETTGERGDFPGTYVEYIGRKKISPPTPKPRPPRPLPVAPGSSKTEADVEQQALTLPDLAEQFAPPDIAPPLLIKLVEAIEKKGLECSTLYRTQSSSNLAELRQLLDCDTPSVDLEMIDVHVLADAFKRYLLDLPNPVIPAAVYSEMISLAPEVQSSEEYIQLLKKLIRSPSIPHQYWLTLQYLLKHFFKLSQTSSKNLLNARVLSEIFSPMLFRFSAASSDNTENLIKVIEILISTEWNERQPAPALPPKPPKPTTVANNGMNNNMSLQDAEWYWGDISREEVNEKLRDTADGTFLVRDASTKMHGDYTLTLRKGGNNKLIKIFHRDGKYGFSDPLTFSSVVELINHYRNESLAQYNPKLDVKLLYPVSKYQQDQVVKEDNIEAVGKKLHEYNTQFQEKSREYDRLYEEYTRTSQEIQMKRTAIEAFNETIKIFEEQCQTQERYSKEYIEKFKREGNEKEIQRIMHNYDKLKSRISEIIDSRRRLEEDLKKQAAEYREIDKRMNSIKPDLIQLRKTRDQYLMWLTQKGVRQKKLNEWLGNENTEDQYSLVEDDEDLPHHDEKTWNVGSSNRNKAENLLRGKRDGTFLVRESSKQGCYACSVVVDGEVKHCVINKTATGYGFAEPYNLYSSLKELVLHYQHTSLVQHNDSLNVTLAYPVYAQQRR

SMILES: C[C@H](Nc1ncnc2[nH]ccc(=O)c12)c1nc2ccc(F)cc2c(=O)n1-c1cccc(F)c1 [Example 30, (S)-4-((1-(6-fluoro-3-(3-fluorophenyl)-4-oxo-3,4-dihydroquinazoline-2-yl)ethyl)amino)pyrido[2,3-d]pyrimidine-5(8H)-one]
- IC50 [1]: > 500 nM
- IC50 [2]: < 10 nM
- IC50 [3]: > 500 nM
- IC50 (PI3 Kinase (p120γ) (h)): 10 to 500 nM

SMILES: C[C@H](Nc1nc(N)nc2[nH]cnc(=O)c12)c1cc2cccc(Cl)c2c(=O)n1-c1ccccc1 [Example 85, (S)-7-amino-5-(1-(8-chloro-1-oxo-2-phenyl-1,2-dihydroisoquinoline-3-yl)ethylamino)pyrimido[4,5-d]pyrimidine-4(1H)-one]
- IC50 [1]: > 500 nM
- IC50 [2]: 10 to 500 nM
- IC50 [3]: > 500 nM
- IC50 (PI3 Kinase (p120γ) (h)): 10 to 500 nM

SMILES: Cc1c[nH]c2nc(N)nc(N[C@@H](C)c3cc4cccc(Cl)c4c(=O)n3-c3ccccc3)c2c1=O [Example 18, (S)-2-amino-4-((1-(8-chloro-1-oxo-2-phenyl-1,2-dihydroisoquinoline-3-yl)ethyl)amino)-6-methylpyrido[2,3-d]pyrimidine-5(8H)-one]
- IC50 [1]: 10 to 500 nM
- IC50 [2]: < 10 nM
- IC50 [3]: 10 to 500 nM
- IC50 (PI3 Kinase (p120γ) (h)): 10 to 500 nM

SMILES: C[C@H](Nc1ncnc2[nH]ccc(=O)c12)c1nc2cccc(Cl)c2c(=O)n1Cc1ccccc1Cl [Example 31, (S)-4-((1-(5-chloro-3-(2-chlorobenzyl)-4-oxo-3,4-dihydroquinazoline-2-yl)ethyl)amino)pyrido[2,3-d]pyrimidine-5(8H)-one]
- IC50 [1]: > 500 nM
- IC50 [2]: 10 to 500 nM
- IC50 [3]: > 500 nM
- IC50 (PI3 Kinase (p120γ) (h)): > 500 nM

SMILES: C[C@H](Nc1ncnc2[nH]ccc(=O)c12)c1cc2ccccc2nc1-c1ccccc1 [Example 6, (S)-4-((1-(2-phenylquinoline-3-yl)ethyl)amino)pyrido[2,3-d]pyrimidine-5(8H)-one]
- IC50 [1]: > 500 nM
- IC50 [2]: < 10 nM
- IC50 [3]: > 500 nM
- IC50 (PI3 Kinase (p120γ) (h)): 10 to 500 nM

SMILES: C[C@H](Nc1ncnc2[nH]cc(F)c(=O)c12)c1cc2cccc(Cl)c2c(=O)n1-c1ccccc1 [Example 20, (S)-4-((1-(8-chloro-1-oxo-2-phenyl-1,2-dihydroisoquinoline-3-yl)ethyl)amino)-6-fluoropyrido[2,3-d]pyrimidine-5(8H)-one]
- IC50 [1]: > 500 nM
- IC50 [2]: < 10 nM
- IC50 [3]: > 500 nM
- IC50 (PI3 Kinase (p120γ) (h)): 10 to 500 nM

SMILES: C[C@H](Nc1ncnc2[nH]ccc(=O)c12)c1c(F)c2cccc(Cl)c2c(=O)n1-c1ccccc1 [Example 11, (S)-4-((1-(8-chloro-4-fluoro-1-oxo-2-phenyl-1,2-dihydroisoquinoline-3-yl)ethyl)amino)pyrido[2,3-d]pyrimidine-5(8H)-one]
- IC50 [1]: > 500 nM
- IC50 [2]: < 10 nM
- IC50 [3]: > 500 nM
- IC50 (PI3 Kinase (p120γ) (h)): 10 to 500 nM

SMILES: CC(Nc1ncnc2[nH]ccc(=O)c12)c1nc2ccc(F)cc2c(-c2ccccn2)c1-c1ccccn1 (centres unmarked) [Example 26, 4-((1-(6-fluoro-3,4-di(pyridine-2-yl)quinoline-2-yl)ethyl)amino)pyrido[2,3-d]pyrimidine-5(8H)-one]
- IC50 [1]: > 500 nM
- IC50 [2]: 10 to 500 nM
- IC50 [3]: > 500 nM
- IC50 (PI3 Kinase (p120γ) (h)): > 500 nM

SMILES: Cc1c[nH]c2ncnc(N[C@@H](C)c3cc4cccc(Cl)c4c(=O)n3-c3ccccc3)c2c1=O [Example 17, (S)-4-((1-(8-chloro-1-oxo-2-phenyl-1,2-dihydroisoquinoline-3-yl)ethyl)amino)-6-methylpyrido[2,3-d]pyrimidine-5(8H)-one]
- IC50 [1]: > 500 nM
- IC50 [2]: 10 to 500 nM
- IC50 [3]: > 500 nM
- IC50 (PI3 Kinase (p120γ) (h)): 10 to 500 nM

SMILES: C[C@H](Nc1nc(N)nc2[nH]ccc(=O)c12)c1nc2ccc(F)cc2cc1-c1ccccn1 [Example 25, (S)-2-amino-4-((1-(6-fluoro-3-(pyridine-2-yl)quinoline-2-yl)ethyl)amino)pyrido[2,3-d]pyrimidine-5(8H)-one]
- IC50 [1]: > 500 nM
- IC50 [2]: < 10 nM
- IC50 [3]: > 500 nM
- IC50 (PI3 Kinase (p120γ) (h)): < 10 nM

SMILES: C[C@H](Nc1ncnc2[nH]ccc(=O)c12)c1nc2ccc(F)cc2c(=O)n1-c1ccccc1 [Example 29, (S)-4-((1-(6-fluoro-4-oxo-3-phenyl-3,4-dihydroquinazoline-2-yl)ethyl)amino)pyrido[2,3-d]pyrimidine-5(8H)-one]
- IC50 [1]: > 500 nM
- IC50 [2]: < 10 nM
- IC50 [3]: > 500 nM
- IC50 (PI3 Kinase (p120γ) (h)): 10 to 500 nM

SMILES: C[C@H](Nc1ncnc2[nH]ccc(=O)c12)c1nc2cccc(Cl)c2c(=O)n1-c1ccccc1 [Example 1, (S)-4-((1-(5-chloro-4-oxo-3-phenyl-3,4-dihydroquinazoline-2-yl)ethyl)amino)pyrido[2,3-d]pyrimidine-5(8H)-one]
- IC50 [1]: > 500 nM
- IC50 [2]: < 10 nM
- IC50 [3]: 10 to 500 nM
- IC50 (PI3 Kinase (p120γ) (h)): 10 to 500 nM

SMILES: CC[C@H](Nc1ncnc2[nH]ccc(=O)c12)c1nc2cccc(F)c2c(=O)n1-c1ccccc1 [Example 12, (S)-4-((1-(5-fluoro-4-oxo-3-phenyl-3,4-dihydroquinazoline-2-yl)propyl)amino)pyrido[2,3-d]pyrimidine-5(8H)-one]
- IC50 [1]: > 500 nM
- IC50 [2]: < 10 nM
- IC50 [3]: > 500 nM
- IC50 (PI3 Kinase (p120γ) (h)): 10 to 500 nM

SMILES: O=c1nc[nH]c2ncnc(N3CCC[C@H]3c3nn4ccc(Cl)c4c(=O)n3-c3ccccc3)c12 [Example 79, (S)-5-(2-(5-chloro-4-oxo-3-phenyl-3,4-dihydropyrrolo[2,1-f][1,2,4]triazine-2-yl)pyrrolidine-1-yl)pyrimido[4,5-d]pyrimidine-4(1H)-one]
- IC50 [1]: > 500 nM
- IC50 [2]: > 500 nM
- IC50 [3]: > 500 nM
- IC50 (PI3 Kinase (p120γ) (h)): > 500 nM

SMILES: C[C@H](Nc1ncnc2[nH]ccc(=O)c12)c1cc2cccc(Cl)c2c(=O)n1-c1ccccc1 [Example 5, (S)-4-((1-(8-chloro-1-oxo-2-phenyl-1,2-dihydroisoquinoline-3-yl)ethyl)amino)pyrido[2,3-d]pyrimidine-5(8H)-one]
- IC50 [1]: > 500 nM
- IC50 [2]: < 10 nM
- IC50 [3]: 10 to 500 nM
- IC50 (PI3 Kinase (p120γ) (h)): 10 to 500 nM

SMILES: C[C@H](Nc1ncnc2[nH]ccc(=O)c12)c1cc2ccc(F)cc2nc1-c1cccc(F)c1 [Example 8, (S)-4-((1-(7-fluoro-2-(3-fluorophenyl)quinoline-3-yl)ethyl)amino)pyrido[2,3-d]pyrimidine-5(8H)-one]
- IC50 [1]: > 500 nM
- IC50 [2]: < 10 nM
- IC50 [3]: > 500 nM
- IC50 (PI3 Kinase (p120γ) (h)): 10 to 500 nM

SMILES: Nc1nc(N2CCC[C@H]2c2nn3ccc(Cl)c3c(=O)n2-c2ccccc2)c2c(=O)nc[nH]c2n1 [Example 95, (S)-7-amino-5-(2-(5-chloro-4-oxo-3-phenyl-3,4-dihydropyrrolo[2,1-f][1,2,4]triazine-2-yl)pyrrolidine-1-yl)pyrimido[4,5-d]pyrimidine-4(1H)-one]
- IC50 [1]: > 500 nM
- IC50 [2]: 10 to 500 nM
- IC50 [3]: > 500 nM
- IC50 (PI3 Kinase (p120γ) (h)): 10 to 500 nM
